Measurements from patent US6911478B2, “Nitric oxide-releasing amidine- and enamine-derived diazeniumdiolates, compositions and uses thereof and method of making same” (The United States of America as represented by the …, priority 1997, dated 2005).

Experiments:
Format in all cases: physicochemical
[1] = time course of NO production in phosphate buffer pH 7.4 at 37° C., chemiluminescence detector; conditions: phosphate buffer pH 7.4, 37° C.; for initial NO release rate: start of experiment
Experimental: This example describes the measurement of the time course of NO production by amidine and enamine nitric oxide adducts.
The NO release rate was measured periodically by flushing the solution with inert N2 gas and then sweeping newly generated NO into a chemiluminescence detector and integrating the signal produced over the next 4-7 mins. NO release was measured over a period of two weeks.
None of these compounds released nitric oxide via a single pathway which produced a release profile consistent with first order kinetics. Accordingly, the results of each test are summarized here by giving the initial NO release rate, the rate at one intermediate timepoint and the total time of observed NO release for representative examples.

[2] = production of NO and N2O by amidine/nitric oxide adducts, headspace chemiluminescence (NO) and gas chromatography (N2O); conditions: for Yield NO / Yield N2O: headspace; for Yield NO: chemiluminescence; for Yield N2O: gas chromatography
Text: (§1) Nitrous oxide (N2O), being the end product of HNO dimerization and dehydration, provided a measure of HNO production via the equation (Nagasawa et al., J. Med. Chem. 33: 3122-3124 (1990)): [drawing 12]
This example describes the measurement of the production of NO and N2O by amidine/nitric oxide adducts.

[3] = gas evolution on dissolving in water and acidifying; conditions: dissolved in water and acidified
Text: as §1

tetrahydrozoline bis(nitric oxide)adduct [Example 6]
total time of observed NO release (in words) [1]: continued for several weeks | NO release rate, last quantitative measurement ([1]; 15 days after the beginning): 9.00×10^−12 moles NO per min. per mg. | NO release rate after 7 days ([1]; after 7 days): 2.06×10^−11 moles NO per min. per mg. | initial NO release rate [1]: 3.64×10^−11 moles NO/min./mg.

cyclohexanone morpholine enamine bis(nitric oxide) adduct [Example 9]
NO release profile, kinetic order [1]: nearly first order kinetics | time at which NO release reached zero [1]: ≤ 7 days | NO release rate after 3 days ([1]; after 3 days): 1.8×10^−11 mole NO/min./mg. | initial NO release rate [1]: 4.2×10^−11 moles NO/min./mg.

2-iminopiperidine bis(nitric oxide)adduct [Example 4]
Yield NO ([2]; pH 7.4 buffer): −0.08 moles per mole cmpd | Yield N2O ([2]; pH 7.4 buffer): 0.45 moles per mole cmpd

acetamidine tetrakis (nitric oxide) adduct [Example 3]
Yield NO ([2]; pH 7.4 buffer): 0.05 moles per mole cmpd | Yield N2O ([2]; pH 7.4 buffer): 0.64 moles per mole cmpd

2-methyl-2-imidazoline tetrakis(nitric oxide)adduct [Example 2]
Yield NO ([2]; 0.1 N HCl): 0.45 moles per mole cmpd | Yield N2O ([2]; 0.1 N HCl): 0.9 moles per mole cmpd | composition of evolving gas (NO and N2O) ([2]; pH 7.4, NO by chemiluminescence, N2O by gas chromatography): 2 parts NO (determined by chemiluminescence) and 1 part N2O | gas evolution [3]: voluminous gas evolution

O=NN(O)C1(C2=NCCN2)CCCCC1 [Example 5, 2-cyclohexyl-2-imidazoline bis(nitric oxide)adduct]
Yield N2O ([2]; 0.1 N HCl): 0.2 moles per mole cmpd

isobutyraldehyde morpholine enamine bis (nitric oxide) adduct [Example 10]
time at which NO release reached zero [1]: 7 days | initial NO release rate [1]: 3.7×10^−11 moles NO/min./mg. | NO release rate after rapid decrease ([1]; remained at about this level for 4 days): 7.0×10^−12 mole NO/min./mg.

idazoxan-bis(nitric oxide) adduct [Example 7]
time at which NO release reached zero [1]: ≤ 16 days | NO release rate after 4 days ([1]; after 4 days (gradually increased)): 1.41×10^−10 moles NO/min./mg. | initial NO release rate [1]: 5.25×10^−11 moles NO/min./mg.
